In PubChem BioAssay AID1999 (Broad Institute, 2009) one finds EC50 data, which are given here for one compound.

Inconclusive results are not listed. Calls of active or inactive are those of the source. The rule behind the calls is not given here.

This test has as its system H4 cells, PrP 5'UTR luciferase reporter, luminescence. Put plainly: activators of PrP 5'UTR-driven reporter translation, dose response, luminescence (AID 1999).

On to `C#CCOCCOCCOCCNc1nc(N2CCN(C(=O)CCCCCCCCCCNC(=O)[C@H](CCCCN)n3cc(CCCC(=O)O)nn3)CC2)nc(N2CCN(C(=O)CCCCCCCCCCNC(=O)[C@H](CCCN=C(N)N)n3cc(C[C@@H](C)CC)nn3)CC2)n1`, for which the EC50 (commonly the concentration that produces a half-maximal response) is > 12 µM (inactive).
